Measured values published in patent US5877199A, “Heterocyclic compounds, their preparation and their therapeutic use” (priority 1994, dated 1999).

test system: muscarinic receptors; assay: not given; settings: reported; cited from earlier work

Row | Molecule | allosteric effects on antagonist binding
1 | batrachotoxin | negative allosteric effects on antagonist binding
2 | COc1cc2c3cc1Oc1cc(ccc1O)C[C@@H]1c4c(cc(OC)c(O)c4Oc4ccc(cc4)C[C@@H]3N(C)CC2)CC[N+]1(C)C [Tubocurarine] | negative allosteric effects on antagonist binding

target: T1, m1 muscarinic receptors (Homo sapiens, UniProt P11229); assay: Effect on ACh binding: ACh inhibition of 3H-NMS binding (indirect assay) on CHO cell membranes; settings: tested at 3 μg/ml; 0.15 nM 3H-NMS, 30 μM ACh, 0.2 mM GTP, pH 7.4, 30° C., two hours
T1 construct: expressed in transfected cells; host or cells: CHO (Chinese Hamster Ovary) cells, membranes
T1 sequence (P11229 1-460): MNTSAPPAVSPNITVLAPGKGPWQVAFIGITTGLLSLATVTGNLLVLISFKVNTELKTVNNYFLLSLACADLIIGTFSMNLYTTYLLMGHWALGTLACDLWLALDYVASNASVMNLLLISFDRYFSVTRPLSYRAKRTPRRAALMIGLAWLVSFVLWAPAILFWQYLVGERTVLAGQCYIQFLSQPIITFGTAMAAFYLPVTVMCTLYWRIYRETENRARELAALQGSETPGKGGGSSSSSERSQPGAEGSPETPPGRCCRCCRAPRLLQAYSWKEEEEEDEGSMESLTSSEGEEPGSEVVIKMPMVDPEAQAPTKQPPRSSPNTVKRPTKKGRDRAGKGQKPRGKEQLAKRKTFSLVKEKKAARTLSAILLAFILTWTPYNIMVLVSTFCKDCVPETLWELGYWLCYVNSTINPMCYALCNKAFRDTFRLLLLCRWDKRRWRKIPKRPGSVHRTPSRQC
Text: The compounds of the present invention may be assayed for allosteric activity at m1 muscarinic receptors as described below, although the assays we describe are not necessarily exhaustive, and other assays may be employed, as desired, to establish allosterism.
A suitable cell line is CHO (Chinese Hamster Ovary), which are readily engineered to express only one receptor sub-type.
To obtain the large amount of cell membranes required, plates of 530 cm^2 culture area were used. CHO cells which express m1, m2, m3 and m4 receptors were grown separately in MEM alpha medium containing 10% newborn calf serum and antibiotics. When cells reached confluence, they were washed twice with 10 ml of 20 mM HEPES containing 10 mM EDTA (pH 7.4), scraped into the same buffer and homogenized using a Polytron (trademark) homogenizer (setting 5-6 for 5 sec×2). Membrane pellets were obtained by centrifugation (40000×g, 10 min, 4° C.) and resuspended in 20 mM HEPES-0.1 mM EDTA (pH 7.4). Centrifugation and resuspension were repeated twice to wash the cell membranes. After measurement of membrane protein, the membranes (1 or 2 mg protein/ml) were stored at -70° C.
While the direct assay measures ACh (=acetylcholine) binding only to the high affinity state, the indirect assay measures effects only at the low affinity state. This is achieved by including 0.2 mM GTP in the assay. In this assay a fixed concentration of ^3 H-NMS (roughly the Kd value) is incubated in the absence and presence of a fixed concentration of ACh (at about the IC50 value) and the effects of three concentrations of test agent are measured, again in the absence and presence of ACh.
Calculating the effects on ^3 H-NMS binding alone is as follows: binding in the presence of the agent is expressed as a percentage of binding in its absence and, if the effect is inhibitory, an IC50 is estimated graphically. The assay also contains a single high concentration of ^3 H-NMS (4 nM, about 30 times the Kd) which provides an estimate of Bmax (i.e. maximum binding).
Expressing the effect on cold ACh binding will be explained with reference to FIGS. 1a, b and c. These figures show theoretical data and the effects of the transformations described below. In FIGS. 1a and 1b ^3 H-NMS and cold ACh are present at their Kd concentrations; in FIG. 1a the agent has a negative allosteric effect on ^3 H-NMS, while in FIG. 1b it has a positive allosteric effect on ^3 H-NMS. The left panels show the amount of ^3 H-NMS specifically bound in the assay. If the affinity of ACh is reduced by the test agent, as shown in the top panels of FIGS. 1a and 1b, the inhibition by ACh will decrease, but the counts recovered will also depend on the effect of the agent on ^3 H-NMS binding alone. To calculate the effect on ACh binding the inhibitory effect of ACh is first calculated as a percent of its own control in the absence of ACh. Next it is assumed that fractional inhibition is the same as tractional occupancy, and inhibition in the presence of agent is expressed as a percentage of inhibition in the absence of agent. The effects of these transformations are shown in the centre panels. Expressing inhibition by ACh in the presence of agent as a percentage of inhibition in the absence of agent allows the effect of the agent on cold ACh binding to be seen on the same scale as the effect on ^3 H-NMS and ^3 H-ACh binding and is generally preferred.
If the concentration of ^3 H-NMS used in the indirect assay is around the Kd value or less, the transformation described above provides a qualitative and semi-quantitative measure of the agent's effect. If a higher concentration of ^3 H-NMS is used, or if the agent has a positive allosteric effect on ^3 H-NMS, then the results of this transformation may be misleading. […] It is assumed that ACh binds to a single affinity state i.e. that its inhibition curve has a slope of 1, and so an IC50 is calculated from the percentage inhibition of control binding. […]

Row | Molecule | Effect on ACh Binding
3 | CCCSc1c(CC(=O)O)cc(C)c2c3ccccc3n(C)c12 [Example 210, (4,9-Dimethyl-1-propylthiocarbazol-2-yl)acetic Acid] | 2.03
4 | CSc1c(CC(=O)O)ccc2c3ccccc3n(Cc3ccccc3)c12 [Example 5, (9-Benzyl-1-methylthiocarbazol-2-yl)acetic acid] | 2.62
5 | CCCc1cc(C(Cc2cccc([N+](=O)[O-])c2)C(=O)O)c(SC)c2c1c1ccccc1n2Cc1cccc([N+](=O)[O-])c1 (stereo not shown) [Example 172, 2-[1-Methylthio-9-(3-nitrobenzyl)-4-propylcarbazol-2-yl]-3-(3-nitrophenyl)propionic Acid] | 2.59
6 | CSc1c(CC(=O)O)cc(C)c2c3ccccc3n(CCc3cccc(Cl)c3)c12 [Example 229, {9-[2-(3-Chlorophenyl)ethyl]-4-methyl-1-methylthiocarbazol-2-yl}acetic Acid] | 5.79
7 | O=C(O)Cc1ccc2c3ccccc3n(Cc3cccc(OCc4ccccc4)c3)c2c1 [Example 165, [9-(3-Benzyloxybenzyl)carbazol-2-yl]acetic Acid] | 2.24
8 | CSc1c(CC(=O)O)ccc2c3ccccc3n(Cc3ccc(Cl)cc3)c12 [Example 7, [9-(4-Chlorobenzyl)-1-methylthiocarbazol-2-yl]acetic acid] | 3.55
9 | CCCOc1c(CC(=O)O)cc(C)c2c3ccccc3n(Cc3ccccc3)c12 [Example 132, (9-Benzyl-4-methyl-1-propoxycarbazol-2-yl)acetic Acid] | 2.68
10 | CSc1c(Cc2nnn[nH]2)cc(C)c2c3ccccc3n(Cc3ccc(Cl)c(Cl)c3)c12 [Example 152, 5-[9-(3,4-Dichlorobenzyl)-4-methyl-1-methylthiocarbazol-2-yl]methyl-1H-tetrazole] | 2.02
11 | CSc1c(CC(=O)O)cc(C)c2c3ccccc3n(Cc3cccc(F)c3)c12 [Example 141, [9-(3-Fluorobenzyl)-4-methyl-1-methylthiocarbazol-2-yl]acetic Acid] | 3.81
12 | Cc1cc(CC(=O)O)c(SCc2ccccc2)c2c1c1ccccc1n2C [Example 206, (1-Benzylthio-4,9-dimethylcarbazol-2-yl)acetic Acid] | 2.13
13 | CSc1c(CC(=O)O)cc(C)c2c3ccccc3n(Cc3ccc(Cl)cc3)c12 [Example 180, [9-(4-Chlorobenzyl)-4-methyl-1-methylthiocarbazol-2-yl]acetic Acid] | 5.02

test system: M2 muscarinic receptors in the heart; assay: not given; settings: Tucek et al. 1993; cited from earlier work

Row | Molecule | effect on affinity of M2 muscarinic receptors for NMS
14 | C=CC[N@@+]12CC[C@@]34c5ccccc5N5/C=C6/[C@H]7C[C@H]8[C@@]9(CC[N@@+]8(CC=C)C/C7=C/CO)c7ccccc7N(/C=C(/[C@@H](C[C@@H]31)/C(=C\CO)C2)[C@H]54)[C@@H]69 [alcuronium] | allosterically increases the affinity of M2 muscarinic receptors in the heart for NMS

test system: heart receptors; assay: not given; settings: Riker and Wescoe 1951; cited from earlier work

Row | Molecule | action on heart receptors
15 | CC[N+](CC)(CC)CCOc1cccc(OCC[N+](CC)(CC)CC)c1OCC[N+](CC)(CC)CC [gallamine] | negative action on heart receptors

same assay, conditions: subsequently established; cited from earlier work

Row | Molecule | competitive antagonism for acetylcholine
16 | CC[N+](CC)(CC)CCOc1cccc(OCC[N+](CC)(CC)CC)c1OCC[N+](CC)(CC)CC [gallamine] | not a competitive antagonist for acetylcholine
